# According to ChEMBL document CHEMBL5303573, “Mapping human microbiome drug metabolism by gut bacteria and their genes” (Nature, 2019):
# How the values were obtained:
# [1] = The drug is tested on Edwardsiella tarda strain: ATCC23685 for biotransformation. The drug concentrations were measured before and after a 12-h incubation by liquid-chromatography-coupled mass spectrometry (LC–MS); details: 2 µM
# [2] = anaerostipes sp., 12 h, 2 µM
# Description: The drug is tested on Anaerostipes sp. strain: fecal isolate for biotransformation. The drug concentrations were measured before and after a 12-h incubation by liquid-chromatography-coupled mass spectrometry (LC–MS)
# [3] = The drug is tested on Collinsella intestinalis strain: DSM13280 for biotransformation. The drug concentrations were measured before and after a 12-h incubation by liquid-chromatography-coupled mass spectrometry (LC–MS); details: 2 µM
# [4] = parabacteroides distasonis, 12 h, 2 µM
# Description: The drug is tested on Parabacteroides distasonis strain: ATCC8503 for biotransformation. The drug concentrations were measured before and after a 12-h incubation by liquid-chromatography-coupled mass spectrometry (LC–MS)
# [5] = The drug is tested on Bacteroides sp. WH2 strain: WH2 for biotransformation. The drug concentrations were measured before and after a 12-h incubation by liquid-chromatography-coupled mass spectrometry (LC–MS); details: bacteroides sp. wh2, 12 h, 2 µM
# [6] = The drug is tested on Bacteroides pectinophilus strain: ATCC43243 for biotransformation. The drug concentrations were measured before and after a 12-h incubation by liquid-chromatography-coupled mass spectrometry (LC–MS); details: 2 µM
# [7] = The drug is tested on Bifidobacterium longum subsp. Infantis strain: CCUG52486 for biotransformation. The drug concentrations were measured before and after a 12-h incubation by liquid-chromatography-coupled mass spectrometry (LC–MS); details: 2 µM
# [8] = The drug is tested on Alistipes indistinctus strain: DSM22520 for biotransformation. The drug concentrations were measured before and after a 12-h incubation by liquid-chromatography-coupled mass spectrometry (LC–MS); details: 2 µM
# [9] = The drug is tested on Ruminococcus gnavus strain: ATCC29149 for biotransformation. The drug concentrations were measured before and after a 12-h incubation by liquid-chromatography-coupled mass spectrometry (LC–MS); details: mediterraneibacter gnavus, 2 µM
# [10] = The drug is tested on Bacteroides dorei strain: DSM17855 for biotransformation. The drug concentrations were measured before and after a 12-h incubation by liquid-chromatography-coupled mass spectrometry (LC–MS); details: phocaeicola dorei, 2 µM
# [11] = bacteroides thetaiotaomicron, 12 h, 2 µM
# Description: The drug is tested on Bacteroides thetaiotaomicron strain: 3731 for biotransformation. The drug concentrations were measured before and after a 12-h incubation by liquid-chromatography-coupled mass spectrometry (LC–MS)
# [12] = The drug is tested on Bacteroides cellulosilyticus strain: DSM14838 for biotransformation. The drug concentrations were measured before and after a 12-h incubation by liquid-chromatography-coupled mass spectrometry (LC–MS); details: 2 µM
# [13] = The drug is tested on Providencia stuartii strain: ATCC25827 for biotransformation. The drug concentrations were measured before and after a 12-h incubation by liquid-chromatography-coupled mass spectrometry (LC–MS); details: 2 µM
# [14] = bacteroides fragilis, 12 h, 2 µM
# Description: The drug is tested on Bacteroides fragilis strain: NCTC 9343 for biotransformation. The drug concentrations were measured before and after a 12-h incubation by liquid-chromatography-coupled mass spectrometry (LC–MS)
# [15] = The drug is tested on Bacteroides fragilis strain: HMW610 for biotransformation. The drug concentrations were measured before and after a 12-h incubation by liquid-chromatography-coupled mass spectrometry (LC–MS); details: 2 µM
# [16] = bacteroides intestinalis, 12 h, 2 µM
# Description: The drug is tested on Bacteroides intestinalis strain: DSM17393 for biotransformation. The drug concentrations were measured before and after a 12-h incubation by liquid-chromatography-coupled mass spectrometry (LC–MS)
# [17] = The drug is tested on Clostridium sp. strain: fecal isolate for biotransformation. The drug concentrations were measured before and after a 12-h incubation by liquid-chromatography-coupled mass spectrometry (LC–MS); details: 2 µM
# [18] = segatella copri, 12 h, 2 µM
# Description: The drug is tested on Prevotella copri strain: DSM18205 for biotransformation. The drug concentrations were measured before and after a 12-h incubation by liquid-chromatography-coupled mass spectrometry (LC–MS)
# [19] = The drug is tested on Blautia luti strain: DSM14534 for biotransformation. The drug concentrations were measured before and after a 12-h incubation by liquid-chromatography-coupled mass spectrometry (LC–MS); assay type: ADME; set-up: dose 2 uM, timepoint 0 vs 12 hours; details: 2 µM
# [20] = The drug is tested on Anaerotruncus colihominis strain: DSM17241 for biotransformation. The drug concentrations were measured before and after a 12-h incubation by liquid-chromatography-coupled mass spectrometry (LC–MS); details: 2 µM
Bacterial Biotransformation [1],Bacterial Biotransformation [2],Bacterial Biotransformation [3],Bacterial Biotransformation [4],Bacterial Biotransformation [5],Bacterial Biotransformation [6],Bacterial Biotransformation [7],Bacterial Biotransformation [8],Bacterial Biotransformation [9],Bacterial Biotransformation [10],Bacterial Biotransformation [11],Bacterial Biotransformation [12],Bacterial Biotransformation [13],Bacterial Biotransformation [14],Bacterial Biotransformation [15],Bacterial Biotransformation [16],Bacterial Biotransformation [17],Bacterial Biotransformation [18],Bacterial Biotransformation [19],Bacterial Biotransformation [20],SMILES
Compound NOT metabolized,Compound NOT metabolized,Compound NOT metabolized,Compound NOT metabolized,Compound NOT metabolized,Compound NOT metabolized,Compound NOT metabolized,Compound NOT metabolized,Compound NOT metabolized,Compound NOT metabolized,Compound NOT metabolized,Compound NOT metabolized,Compound NOT metabolized,Compound NOT metabolized,Compound NOT metabolized,Compound NOT metabolized,Compound NOT metabolized,Compound NOT metabolized,Compound NOT metabolized,,Cc1cc2c(cc1S(N)(=O)=O)S(=O)(=O)CCC2
,Compound metabolized,Compound NOT metabolized,Compound metabolized,Compound NOT metabolized,Compound NOT metabolized,Compound NOT metabolized,Compound NOT metabolized,Compound NOT metabolized,Compound metabolized,Compound NOT metabolized,Compound NOT metabolized,Compound NOT metabolized,Compound metabolized,Compound metabolized,Compound metabolized,Compound metabolized,Compound metabolized,Compound NOT metabolized,Compound metabolized,Cc1nc(Nc2ncc(C(=O)Nc3c(C)cccc3Cl)s2)cc(N2CCN(CCO)CC2)n1.O [DASATINIB]
Compound NOT metabolized,Compound NOT metabolized,Compound NOT metabolized,Compound NOT metabolized,Compound NOT metabolized,Compound NOT metabolized,Compound NOT metabolized,Compound NOT metabolized,Compound NOT metabolized,Compound metabolized,Compound NOT metabolized,Compound NOT metabolized,Compound NOT metabolized,Compound NOT metabolized,Compound metabolized,Compound NOT metabolized,Compound metabolized,Compound NOT metabolized,Compound NOT metabolized,Compound NOT metabolized,C[C@H]1O[C@@H](O[C@H]2[C@@H](O)C[C@H](O[C@H]3[C@@H](O)C[C@H](O[C@H]4CC[C@@]5(C)[C@H](CC[C@@H]6[C@@H]5C[C@@H](O)[C@]5(C)[C@@H](C7=CC(=O)OC7)CC[C@]65O)C4)O[C@@H]3C)O[C@@H]2C)C[C@H](O)[C@@H]1O [DIGOXIN]
Compound NOT metabolized,Compound NOT metabolized,Compound NOT metabolized,Compound NOT metabolized,Compound NOT metabolized,Compound NOT metabolized,Compound NOT metabolized,Compound NOT metabolized,Compound NOT metabolized,Compound NOT metabolized,Compound NOT metabolized,Compound NOT metabolized,Compound NOT metabolized,Compound NOT metabolized,Compound NOT metabolized,,Compound NOT metabolized,Compound NOT metabolized,Compound NOT metabolized,Compound NOT metabolized,O=C1[C@H](CC[C@H](O)c2ccc(F)cc2)[C@@H](c2ccc(O)cc2)N1c1ccc(F)cc1 [EZETIMIBE]
Compound NOT metabolized,Compound NOT metabolized,Compound NOT metabolized,Compound metabolized,Compound metabolized,Compound NOT metabolized,Compound metabolized,Compound metabolized,Compound NOT metabolized,Compound metabolized,Compound metabolized,Compound metabolized,Compound NOT metabolized,Compound metabolized,Compound metabolized,Compound metabolized,Compound NOT metabolized,Compound metabolized,Compound NOT metabolized,Compound NOT metabolized,CC(=O)OCC(CCn1cnc2cnc(N)nc21)COC(C)=O [FAMCICLOVIR]
Compound NOT metabolized,Compound NOT metabolized,Compound NOT metabolized,Compound NOT metabolized,Compound NOT metabolized,Compound NOT metabolized,Compound NOT metabolized,Compound NOT metabolized,Compound NOT metabolized,Compound metabolized,Compound NOT metabolized,Compound NOT metabolized,Compound NOT metabolized,Compound metabolized,Compound metabolized,Compound NOT metabolized,Compound NOT metabolized,Compound NOT metabolized,Compound NOT metabolized,Compound NOT metabolized,CC(C)(C)NC(=O)[C@H]1CC[C@H]2[C@@H]3CC[C@H]4NC(=O)C=C[C@]4(C)[C@H]3CC[C@]12C [FINASTERIDE]
Compound NOT metabolized,Compound metabolized,,Compound NOT metabolized,Compound NOT metabolized,Compound NOT metabolized,Compound metabolized,Compound metabolized,Compound NOT metabolized,Compound NOT metabolized,Compound NOT metabolized,Compound NOT metabolized,Compound NOT metabolized,Compound metabolized,Compound metabolized,Compound NOT metabolized,Compound NOT metabolized,Compound NOT metabolized,Compound metabolized,Compound NOT metabolized,COC1=C(OC)C(=O)C(CCCCCCCCCCO)=C(C)C1=O [IDEBENONE]
Compound NOT metabolized,Compound NOT metabolized,Compound NOT metabolized,Compound metabolized,,Compound NOT metabolized,Compound NOT metabolized,Compound metabolized,Compound NOT metabolized,Compound metabolized,Compound metabolized,Compound NOT metabolized,Compound metabolized,Compound metabolized,Compound metabolized,Compound metabolized,Compound metabolized,Compound NOT metabolized,,Compound NOT metabolized,CC(=O)O[C@]1(C(C)=O)CC[C@H]2[C@@H]3C=C(C)C4=CC(=O)CC[C@]4(C)[C@H]3CC[C@@]21C [MEGESTROL ACETATE]
